According to patent US20210292807A1, “METHOD FOR TESTING ANTIMICROBIAL SUSCEPTIBILITY” (priority 2017, published 2021):
≈ marks a conversion by molar mass, not a printed value.

What was measured:
Klebsiella isolates [1] = test: Broth microdilution MIC (MICBMD) of Klebsiella isolates; format: cell-based, Klebsiella pneumoniae, Klebsiella oxytoca; conditions: limited clinical screen concentrations
Protocol: (§1) An aliquot of bacterial suspension was added to 50 mL centrifuge tubes (Corning, N.Y.) containing 9 mL of pre-warmed (37° C.) filtered MHB to produce a final density of 5×10^5-1×10^6 bacteria per mL. This suspension was incubated at 37° C. with shaking at 100 RPM for 30 minutes to obtain an actively dividing culture. An aliquot of antibiotic working solution from the previously described dilution series (appropriate to the concentration tested) was then added to each tube before a further 30-minute incubation with shaking, during which time a microbroth dilution (MBD) plate was prepared for overnight incubation at 37° C. as previously described in Clinical and Laboratory Standards Institute (2015) Performance Standards for Antimicrobial Susceptibility Testing: Informational Supplement. CLSI document M100-S25. Clinical and Laboratory Standards Institute, 950, West Valley Road, Suite 2500, Wayne, Pa., 19087, USA.
FIG. 2 outlines the work flow as exemplified herein. In brief, an isolate was retrieved from cryopreservation, plated onto blood agar to ensure purity, and inoculated into trypticase soy broth (TSB, described above) overnight to simulate biological fluids. A 1 mL aliquot of this overnight suspension was inoculated into Mueller-Hinton broth (MHB) [comprising about 300.0 g beef extract (dehydrated infusion from), about 17.5 g casein hydrolysate, about 1.5 g starch, reconstituted in about 1 L of water, pH 7.3±0.1 as measured and kept at 25° C.] and incubated at 37° C. to ensure bacteria were actively dividing. One aliquot was subjected to traditional microbroth dilution (MBD) susceptibility testing.

Klebsiella isolates [2] = test: Acoustic flow cytometry-assisted susceptibility test (FAST), MICFAST and S/NS, Klebsiella isolates; format: cell-based, Klebsiella pneumoniae, Klebsiella oxytoca; conditions: limited clinical screen concentrations
Protocol: A 1 mL aliquot of bacterial suspension was centrifuged, washed and resuspended in 1 mL filtered Hank's Buffered Salt Solution (HBSS; comprising about 0.137 M NaCl, about 5.4 mM KCl, about 0.25 mM Na2HPO4, about 0.1 g Glucose, about 0.44 mM KH2PO4, 1.3 mM CaCl2), 1.0 mM MgSO4, about 1.3 mM CaCl2), 1.0 mM MgSO4, and about 4.2 mM NaHCO3) and diluted in series (e.g., in a 1:10 serial dilution) to a final 1:1000 dilution.
One μL (microliter) of SYTO 9 stain (e.g., ThermoFisher Scientific) working stock solution was added to the final dilution at a final concentration of 5 μM and incubated for 5 minutes before counting bacterial events by acoustic flow cytometer (AFC) (Attune, ThermoFisher, Eugene, Oreg., USA), which was used to prepare a standardised inoculum density for susceptibility testing.
as §1
One millilitre of bacterial suspension from each antibiotic concentration was harvested by centrifugation at 7800×g for 5 minutes, washed and diluted 1:10 in filtered HBSS in a light-impermeable microcentrifuge tube, then stained with SYTO 9 stain at a final concentration of 5 μM, and incubated for 5 min before AFC sampling. Hoechst 33342 dye (NucBlue, Thermo Fisher Scientific, Eugene, Oreg., USA) and a SYTO 9/propidium iodide (PI) combination (Thermo Fisher Scientific) were used in a series of replicate experiments.
The acoustic flow cytometer employed was Attune acoustic flow cytometer (Thermo Fisher Scientific), having installed therein a 488 nm blue laser with a 530/30 nm filter on the photomultiplier tube for measuring fluorescence of cells assayed. Alternatively, the Attune NxT acoustic flow cytometer (Thermo Fisher Scientific) can be employed. AFC was calibrated at the beginning of each acquisition session using fluorescently labelled size calibration beads, in accordance with the manufacturer's instructions (ThermoFisher Scientific). The AFC settings were as follows: Forward Scatter (FSC) voltage 3100, FSC threshold 4×1000 AND, blue laser 1 (BL1—530/30 nm) voltage 1900, BL1 threshold 1×1000 AND, high sensitivity, flow rate 25 μL/minute, and an acquisition volume of 125 μL. Acquisition was halted after either collection of 20,000 events across all gates, or after 3 minutes, with each sample acquired in technical triplicate.
Collected data was exported in the FCS 3.0 file format and analysed in Flow v10.0 (FlowJo LLC, Ashland, Oreg., USA) by a single user, blinded to the MIC results by BMD (MICBMD).
Subsequent to quantitative MICFAST determination, the acoustic flow cytometer data were re-analysed in silico to produce a limited sub-set for qualitative susceptibility determination. The six antibiotic dilutions (0 mg/L, 0.25 mg/L, 1 mg/L, 2 mg/L, 4 mg/L and 16 mg/L) most relevant to qualitative susceptibility assessment were used. In silico analysis was restricted to the first technical triplicate of each recorded sample. Gating strategies remained consistent, with the addition of a gate restricting analysis to only those events recorded in the first 60 seconds of acquisition.

Staphylococcus aureus [3] = test: Broth microdilution (BMD) MIC of Staphylococcus aureus isolates; format: cell-based
From the text: The acoustic flow cytometry assisted method of the present invention was employed essentially as described in the previous working examples to determine susceptibility of Staphylococcus aureus to both cefoxitin and oxacillin. Susceptibility classification into S/NS and quantitative MIC values obtained using the acoustic flow cytometry assisted method were compared to results obtained using the conventional broth microdilution (BMD) method. Results are shown in Table 4 (Panels A and B) below and in FIGS. 9-12.

Staphylococcus aureus [4] = test: Acoustic flow cytometry-assisted susceptibility test (FAST) of Staphylococcus aureus isolates; format: cell-based; parameters: MIC dilution at which susceptibility-associated signature is observed by AFC: unit not given beside the values
Protocol: The material and methods utilized are briefly outlined herein below. The method used was similar to that outlined in the earlier examples albeit adjusted to allow for 3 hour incubation of Staphylococcus aureus to account for longer doubling times of Staphylococcus aureus relative to K. pneumoniae used in the previous examples.
Events were acquired by forward scatter and BL1 (515 nm-545 nm) using the Attune with voltages and thresholding set as follows: Forward Scatter Voltage: 3050; Forward Scatter Threshold: 3×1000 AND; Side Scatter Voltage: 2950; Side Scatter Threshold: IGNORE; BL1 Voltage: 1500; BL1 Threshold: 1×1000 AND.
Nine mL of MHB was aliquoted into twelve, 50 mL Falcon tubes. Each tube was labelled with the required final test concentration of antibiotic. […] Tubes were transferred to a 35° C. incubator to pre-warm.
One 1 mL of the overnight bacterial suspension was transferred into a 1.5 mL microcentrifuge tube and centrifuge at 7,800×g for about 5 minutes. The supernatant was discarded, and the pellet re-suspended in 1 mL of 0.1 μm filtered HBSS. This step was optionally repeat.
About 900 μL of HBSS was dispended into three 1.5 mL tubes—two clear tubes and one amber tube. About 100 μL of the bacterial suspension was inoculated into the first tube (clear) and serially dilute to reach 1:1000 by the third tube (amber). About 1 μl of SYTO 9 (5 μM final concentration) was added to the third tube. The dye was incubated, protected from light, for at least 5 minutes (individual sample types were optionally required with longer incubations) and then the Stained Control on the Attune acoustic flow cytometer instrument was read
The event density (events/μL) from your stained control aliquots was used to calculate the inoculum volume required to produce a 5.5×10^5 bacteria mL-1 in 10 mL of MHB. For example, (400 events/A)/(10 mL×550000)=7.3 μL, rounded up to the closest 10 μL.
The required volume of bacterial suspension was added from the overnight culture into each 50 ml tube with 9 ml of preheated MHB. Optionally incubate with shaking and protected from light, at 100 RPM at 35° C. for 60 minutes.
MHB (0.1 μm filtered) was used to dilute the antibiotics in this preparation. About one aliquot of antibiotic was removed from the −20° C. freezer and equilibrated to room temperature by ambient heat exchange, and diluted to reach a range of working stock concentrations that were are ten times the desired test concentrations.
Once the 60-minute incubation of bacterial suspension was complete, about 1 mL of 10× antibiotic stocks were added to tubes containing bacterial suspensions to reach final desired test concentrations (1 ml antibiotic and total volume 10 ml). The 50 mL tubes were returned to the incubator and incubated, by shaking at 100 RPM at 35° C., for a further 3 hours.
After 3 hours, about 1 mL suspension was harvested from each tube and transferred to a 1.5 mL clear microcentrifuge tube (marked with the corresponding antibiotic concentration), then centrifuge at 7,800×g for 5 minutes. The supernatant discarded and the pellet resuspended in 1 mL of 0.1 μm filtered HBSS. This wash step was optionally repeated.
Using the computer connected to the Attune, new samples were created ready for the collection of data. That the following parameters were set: Sensitivity: High Sensitivity; Flow Rate: 25 μL/minute; Acquisition Volume: 125 μL; Events Collected: No less than 20,000 from all gates, Time: 1 minute.
About 899 μL HBSS was dispensed into one 1.5 mL amber tube per sample. About 100 μL of suspension per tube was added to achieve a 1 in 10 dilution. About 1 μl of SYTO 9 was added to each tube and the tube vortexed for no more than 2 seconds (over vortexing can lead to bacterial clustering and/or attachment to tube walls).
Samples were placed on the SIP and acquired, in technical triplicate, as per the parameters outlined above. […]

[5] = K. pneumoniae ATCC 700603 (carbapenem susceptible control)
[6] = K. pneumoniae ATCC BAA1705 (carbapenem resistant control)
[7] = S. aureus isolate ATCC 29213, MSSA
[8] = S. aureus isolate W0096111, MSSA
[9] = S. aureus isolate W0226111, MSSA
[10] = S. aureus isolate W0236111, MSSA
[11] = S. aureus isolate W0296111, MSSA
[12] = S. aureus isolate W0816111, MSSA
[13] = S. aureus isolate W0866111, MRSA
[14] = S. aureus isolate W6496111, MSSA
[15] = S. aureus isolate W9196111, MSSA
[16] = S. aureus isolate W9346111, MRSA
[17] = S. aureus isolate W . . . 6111, MRSA
[18] = S. aureus isolate WACC 98, MRSA

SMILES	MICBMD (Klebsiella isolates [1]; [5])	MICBMD (Klebsiella isolates [1]; [6])	MICFAST (Klebsiella isolates [2]; [5])	MICFAST (Klebsiella isolates [2]; [6])	MIC (BMD) (Staphylococcus aureus [3]; [7]) [µg/mL]	MIC (BMD) (Staphylococcus aureus [3]; [8]) [µg/mL]	MIC (BMD) (Staphylococcus aureus [3]; [9]) [µg/mL]	MIC (BMD) (Staphylococcus aureus [3]; [10]) [µg/mL]	MIC (BMD) (Staphylococcus aureus [3]; [11]) [µg/mL]	MIC (BMD) (Staphylococcus aureus [3]; [12]) [µg/mL]	MIC (BMD) (Staphylococcus aureus [3]; [13]) [µg/mL]	MIC (BMD) (Staphylococcus aureus [3]; [14]) [µg/mL]	MIC (BMD) (Staphylococcus aureus [3]; [15]) [µg/mL]	MIC (BMD) (Staphylococcus aureus [3]; [16]) [µg/mL]	MIC (BMD) (Staphylococcus aureus [3]; [17]) [µg/mL]	MIC (BMD) (Staphylococcus aureus [3]; [18]) [µg/mL]	MIC dilution at which susceptibility-associated signature is observed by AFC (Staphylococcus aureus [4]; S. aureus ATCC 29213)	MIC dilution at which susceptibility-associated signature is observed by AFC (Staphylococcus aureus [4]; S. aureus WACC 98)	MIC (FAST) (Staphylococcus aureus [4]; [7]) [µg/mL]	MIC (FAST) (Staphylococcus aureus [4]; [8]) [µg/mL]	further results
C[C@@H](O)[C@H]1C(=O)N2C(C(=O)O)=C(S[C@@H]3CN[C@H](C(=O)Nc4cccc(C(=O)O)c4)C3)[C@H](C)[C@H]12 [Analytical Ertapenem, ertapenem]	≤0.25	>16	≤0.25	>16																	
C[C@@H](O)[C@H]1C(=O)N2C(C(=O)O)=C(SCCN=CN)C[C@H]12 [Analytical Imipenem, imipenem]	2	>16	1	>16																	
CO[C@@]1(NC(=O)Cc2cccs2)C(=O)N2C(C(=O)O)=C(COC(N)=O)CS[C@@H]21 [Cefoxitin, cefoxitin]					4	2	2	2	4	2	32	4	2	32	16	128	4	128	2 (≈ 4.68 µM)	4 (≈ 9.36 µM)	MIC (FAST) (Staphylococcus aureus [4]; [9]): 2 µg/mL (≈ 4.68 µM); MIC (FAST) (Staphylococcus aureus [4]; [10]): 4 µg/mL (≈ 9.36 µM); MIC (FAST) (Staphylococcus aureus [4]; [11]): 4 µg/mL (≈ 9.36 µM); MIC (FAST) (Staphylococcus aureus [4]; [12]): 2 µg/mL (≈ 4.68 µM); MIC (FAST) (Staphylococcus aureus [4]; [13]): 16 µg/mL (≈ 37.4 µM); MIC (FAST) (Staphylococcus aureus [4]; [14]): 4 µg/mL (≈ 9.36 µM); MIC (FAST) (Staphylococcus aureus [4]; [15]): 4 µg/mL (≈ 9.36 µM); MIC (FAST) (Staphylococcus aureus [4]; [16]): 32 µg/mL (≈ 74.9 µM); MIC (FAST) (Staphylococcus aureus [4]; [17]): 16 µg/mL (≈ 37.4 µM); MIC (FAST) (Staphylococcus aureus [4]; [18]): 64 µg/mL (≈ 150 µM)
Cc1onc(-c2ccccc2)c1C(=O)N[C@@H]1C(=O)N2[C@@H]1SC(C)(C)[C@@H]2C(=O)O [Oxacillin, oxacillin]					0.25	0.25	0.25	0.25	0.25	0.25	16	1	0.25	32	8	256	0.25	256	≤ 1	≤ 1	MIC (FAST) (Staphylococcus aureus [4]; [9]): ≤ 1 µg/mL; MIC (FAST) (Staphylococcus aureus [4]; [10]): ≤ 1 µg/mL; MIC (FAST) (Staphylococcus aureus [4]; [11]): ≤ 1 µg/mL; MIC (FAST) (Staphylococcus aureus [4]; [12]): ≤ 1 µg/mL; MIC (FAST) (Staphylococcus aureus [4]; [13]): 16 µg/mL (≈ 39.9 µM); MIC (FAST) (Staphylococcus aureus [4]; [14]): 1 µg/mL (≈ 2.49 µM); MIC (FAST) (Staphylococcus aureus [4]; [15]): ≤ 1 µg/mL; MIC (FAST) (Staphylococcus aureus [4]; [16]): 32 µg/mL (≈ 79.7 µM); MIC (FAST) (Staphylococcus aureus [4]; [17]): 16 µg/mL (≈ 39.9 µM); MIC (FAST) (Staphylococcus aureus [4]; [18]): 256 µg/mL (≈ 638 µM); events remaining in Unexposed Cell Morphotype gate (FIG. 14B) (Staphylococcus aureus [4]; clinical methicillin resistant S. aureus WACC 98, at EUCAST breakpoint 8 mg/L): above the 10% threshold for MICFAST; events remaining in Unexposed Cell Morphotype gate (FIG. 14A) (Staphylococcus aureus [4]; control methicillin susceptible S. aureus ATCC 25912, oxacillin concentration range): remains below the 10% MICFAST threshold
